The values below come from the NIST ThermoML archive (doi:10.1016/j.jct.2016.07.009).

For series [1] the following is noted: Crystal; DTA.
The nature of series [2]: Molar enthalpy of transition or fusion. Particulars: Crystal; DSC.

Molecules are shown by their SMILES. ± gives the expanded uncertainty stated by the source.

`Nc1ccc([N+](=O)[O-])cc1[N+](=O)[O-]` [2,4-dinitroaniline]: the Normal melting temperature in series [1] is 178.1 ± 1.1 °C. The “Molar enthalpy of transition or fusion” value in series [2] came out at 5.93 ± 0.227 kcal/mol.
